Literature values in article PMC10583817 (RSC Medicinal Chemistry, 2023).

Test system: WIN site of WDR5
Conditions: cited from earlier work

Cc1nc(F)ccc1-c1cc(Cn2ccn(C)c2=N)cc(C(=O)NCc2ccc(Cl)c(Cl)c2)c1 [WIN-IN-4]
binding activity: sub-nanomole
